Key:
Mus musculus [1] = assay: Effect on behavioral activity in mouse assessed as spontaneous activity by tetrad test at 30 mg/kg; assay type: functional
Mus musculus [2] = assay: Effect on behavioral activity in mouse assessed as tail flick by tetrad test at 30 mg/kg; assay type: functional
Mus musculus [3] = assay: Effect on behavioral activity in mouse assessed as rectal temperature by tetrad test at 30 mg/kg; assay type: functional
[4] = molecular target: Cannabinoid receptor 1 (Homo sapiens) (UniProt P21554); assay: Binding affinity to CB1 receptor
Sequence of Cannabinoid receptor 1 (Homo sapiens) (P21554 whole entry): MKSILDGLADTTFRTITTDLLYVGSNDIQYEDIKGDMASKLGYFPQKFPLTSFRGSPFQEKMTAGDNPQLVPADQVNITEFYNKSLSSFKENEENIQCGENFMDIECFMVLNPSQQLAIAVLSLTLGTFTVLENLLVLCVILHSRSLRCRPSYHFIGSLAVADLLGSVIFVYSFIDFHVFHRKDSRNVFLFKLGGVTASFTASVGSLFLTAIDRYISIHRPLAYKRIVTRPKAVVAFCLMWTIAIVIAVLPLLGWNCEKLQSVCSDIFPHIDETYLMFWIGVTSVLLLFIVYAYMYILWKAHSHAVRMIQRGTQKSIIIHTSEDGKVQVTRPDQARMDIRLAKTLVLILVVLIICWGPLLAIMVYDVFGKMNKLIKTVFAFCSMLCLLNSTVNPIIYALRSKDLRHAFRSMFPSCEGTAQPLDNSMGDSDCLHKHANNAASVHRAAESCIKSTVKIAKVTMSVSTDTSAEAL

[5] = molecular target: Cannabinoid receptor 2 (Homo sapiens) (UniProt P34972); assay: Binding affinity to CB2 receptor
Sequence of Cannabinoid receptor 2 (Homo sapiens) (P34972 whole entry): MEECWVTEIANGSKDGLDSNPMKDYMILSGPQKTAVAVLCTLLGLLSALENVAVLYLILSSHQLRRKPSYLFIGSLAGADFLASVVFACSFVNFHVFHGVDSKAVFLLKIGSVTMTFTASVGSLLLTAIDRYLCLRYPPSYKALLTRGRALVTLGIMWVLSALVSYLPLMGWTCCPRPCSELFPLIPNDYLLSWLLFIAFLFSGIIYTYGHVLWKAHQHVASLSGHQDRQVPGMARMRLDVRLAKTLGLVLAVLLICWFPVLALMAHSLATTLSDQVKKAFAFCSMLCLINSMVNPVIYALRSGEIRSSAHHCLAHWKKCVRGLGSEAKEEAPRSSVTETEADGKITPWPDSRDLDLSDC

Mus musculus [6] = assay: Effect on behavioral activity in intrathecally dosed mouse assessed as tail flick by tetrad test; assay type: functional
Mus musculus [7] = organism: Mus musculus; assay: Effect on behavioral activity in mouse assessed as spontaneous activity by tetrad test; assay type: functional
Mus musculus [8] = organism: Mus musculus; assay: Effect on behavioral activity in mouse assessed as tail flick by tetrad test; assay type: functional
Mus musculus [9] = organism: Mus musculus; assay: Effect on behavioral activity in mouse assessed as rectal temperature by tetrad test; assay type: functional
Mus musculus [10] = assay: Effect on behavioral activity in intrathecally dosed mouse assessed as tail flick by tetrad test at 100 mg/kg; assay type: functional

SMILES	Activity (Mus musculus [1]) [%]	Activity (Mus musculus [2]) [%]	Activity (Mus musculus [3]) [°C]	Activity [4] [nM]	Activity [5] [nM]	Activity (Mus musculus [6]) [µg]	ED50 (Mus musculus [7]) [mg/kg]	ED50 (Mus musculus [8]) [mg/kg]	ED50 (Mus musculus [9]) [mg/kg]	Activity (Mus musculus [10]) [%]
CCCCCC#Cc1cc(F)c2c(c1)OC(C)(C)[C@@H]1CC=C(C)C[C@@H]21	8	4	-2.2	> 10000	> 4550	156.9	–	–	–	–
CCCCC/C=C/c1cc(O)c2c(c1)OC(C)(C)[C@@H]1CC=C(C)C[C@@H]21	–	–	–	0.86	–	–	0.09	0.09	0.13	–
CCCCCC#Cc1cc(O)c2c(c1)OC(C)(C)[C@@H]1CC=C(C)C[C@@H]21	–	–	–	36	–	–	3.68	3.24	2.96	–
CCCCCCCc1cc(F)c2c(c1)OC(C)(C)[C@@H]1CC=C(C)C[C@@H]21	–	–	–	1560	1510	–	31.1	21.5	6.9	36
CCCCC/C=C/c1cc(F)c2c(c1)OC(C)(C)[C@@H]1CC=C(C)C[C@@H]21	–	–	–	285	40	–	–	–	–	–
CCCCCc1cc(O)c2c(c1)OC(C)(C)[C@@H]1CCC(C)=C[C@@H]21 [DRONABINOL]	–	–	–	–	–	29	1	1.4	1.4	–

Source: ChEMBL document CHEMBL1147027, “The role of fluorine substitution in the structure-activity relationships (SAR) of classical cannabinoids” (2007)
